Experimental data from patent US20090221642A1, “MUSCARINIC RECEPTOR AGONISTS, COMPOSITIONS, METHODS OF TREATMENT THEREOF, AND PROCESSES FOR PREPARATION THEREOF-176” (AstraZeneca AB, priority 2008, published 2009).
Where two headings read alike, the source gives them in different places.

What was measured:
[1] = target: T1, cloned human M2 receptor (human Muscarinic receptor subtype 2) (Homo sapiens, UniProt P08172); assay: hM2 receptor GTPγS binding; format: biochemical; settings: CHO cell membranes expressing hM2, [35S]GTPγS binding
T1 construct: purchased Perkin-Elmer RBHM2M; host or cells: Chinese hamster ovary cells (CHO) membranes
T1 sequence (P08172 1-466): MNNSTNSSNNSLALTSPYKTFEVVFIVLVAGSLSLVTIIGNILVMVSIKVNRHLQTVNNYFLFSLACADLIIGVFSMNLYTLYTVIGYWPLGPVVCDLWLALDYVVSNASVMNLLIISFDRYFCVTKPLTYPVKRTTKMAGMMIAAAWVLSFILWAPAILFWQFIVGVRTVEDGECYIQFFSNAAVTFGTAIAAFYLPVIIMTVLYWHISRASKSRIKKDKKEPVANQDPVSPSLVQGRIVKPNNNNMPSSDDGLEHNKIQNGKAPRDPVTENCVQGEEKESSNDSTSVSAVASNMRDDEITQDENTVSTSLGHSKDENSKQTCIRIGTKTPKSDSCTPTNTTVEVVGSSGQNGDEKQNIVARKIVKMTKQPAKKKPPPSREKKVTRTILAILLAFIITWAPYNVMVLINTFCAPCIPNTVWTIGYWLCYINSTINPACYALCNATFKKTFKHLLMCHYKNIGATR
Summary of the method: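 CHO-cell membranes expressing human M2 receptor, scintillation-bead [35S]GTPγS binding (0.4 nM) with 12.5 μM GDP, pH 7.4 Hepes buffer, 60 min at room temperature. Agonism: stimulation vs 30 μM acetylcholine maximum; antagonism: reversal of 2 μM acetylcholine stimulation. EC50/IC50/Emax from 10-point sigmoidal fits.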

[2] = target: T2, cloned human M4 receptor (human Muscarinic receptor subtype 4) (Homo sapiens, UniProt P08173); assay: hM4 receptor GTPγS binding; format: biochemical; settings: CHO cell membranes expressing hM4, [35S]GTPγS binding
T2 construct: purchased Perkin-Elmer RBHM4M; host or cells: Chinese hamster ovary cells (CHO) membranes
T2 sequence (P08173 1-479): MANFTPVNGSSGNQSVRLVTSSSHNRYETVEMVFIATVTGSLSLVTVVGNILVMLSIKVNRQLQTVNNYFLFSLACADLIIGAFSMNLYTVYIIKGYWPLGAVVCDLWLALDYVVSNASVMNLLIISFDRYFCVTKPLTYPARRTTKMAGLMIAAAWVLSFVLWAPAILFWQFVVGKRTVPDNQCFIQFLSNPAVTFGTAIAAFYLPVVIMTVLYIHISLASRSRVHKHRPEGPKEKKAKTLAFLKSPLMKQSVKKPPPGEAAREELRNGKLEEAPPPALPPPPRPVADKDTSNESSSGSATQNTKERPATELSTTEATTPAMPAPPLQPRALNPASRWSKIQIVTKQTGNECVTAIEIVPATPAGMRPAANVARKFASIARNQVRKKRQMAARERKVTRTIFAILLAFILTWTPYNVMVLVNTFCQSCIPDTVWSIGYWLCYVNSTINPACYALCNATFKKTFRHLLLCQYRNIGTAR
Summary of the method: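 Membranes from CHO cells expressing cloned human M4, with SPA beads, 20 µM GDP and 0.4 nM [35S]GTPγS in HEPES buffer pH 7.4, incubated 60 min at room temperature. Antagonism measured as reversal of 10 µM acetylcholine stimulation; 10-point, threefold dilution curves fitted sigmoidally to give EC50, IC50 and Emax.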

| SMILES | EC50 ([1]; read-out: hM2 EC50) [nM] | EC50 ([2]; read-out: hM4 EC50) [nM] | EC50 ([1]; hM2 EC50 (nM)) [nM] | EC50 ([2]; hM4 EC50 (nM)) [nM] |
| --- | --- | --- | --- | --- |
| CCOC(=O)N1CCC(C)(N2CCC(N3C(=O)Cc4cc(F)ccc43)CC2)C1 (single isomer, unassigned) [Example 80, ethyl 3-(4-(5-fluoro-2-oxoindolin-1-yl)piperidin-1-yl)-3-methylpyrrolidine-1-carboxylate] | 3260 | > 21800 |  |  |
| CCOC(=O)N1CCC(C)(N2CCC(N3C(=O)Cc4cc(F)c(C)cc43)CC2)C1 (single isomer, unassigned) [Example 81, ethyl 3-(4-(5-fluoro-6-methyl-2-oxoindolin-1-yl)piperidin-1-yl)-3-methylpyrrolidine-1-carboxylate] | 1670 | 7070 |  |  |
| CCOC(=O)N1CCC(C)(N2CCC(N3C(=O)Cc4cc(F)c(C)cc43)CC2)C1 (single isomer, unassigned) [Example 82, ethyl 3-(4-(5-fluoro-6-methyl-2-oxoindolin-1-yl)piperidin-1-yl)-3-methylpyrrolidine-1-carboxylate] | 270 | 937 |  |  |
| COC(=O)N1CCC(C)(N2CCC(N3C(=O)Cc4cc(F)c(C)cc43)CC2)C1 (single isomer, unassigned) [Example 83, methyl 3-(4-(5-fluoro-6-methyl-2-oxoindolin-1-yl)piperidin-1-yl)-3-methylpyrrolidine-1-carboxylate] |  |  | 2840 | 11300 |
| COC(=O)N1CCC(C)(N2CCC(N3C(=O)Cc4cc(F)c(C)cc43)CC2)C1 (single isomer, unassigned) [Example 84, methyl 3-(4-(5-fluoro-6-methyl-2-oxoindolin-1-yl)piperidin-1-yl)-3-methylpyrrolidine-1-carboxylate] |  |  | 684 | 2540 |
| CCOC(=O)N1CCC(C)(N2CCC(n3c(=O)[nH]c4ccccc43)CC2)C1 (stereo not drawn) [Example 1, ethyl 3-methyl-3-(4-(2-oxo-2,3-dihydro-1H-benzo[d]imidazol-1-yl)piperidin-1-yl)pyrrolidine-1-carboxylate] | 498 | 1700 |  |  |
| CCNC(=O)N1CCC(C)(N2CCC(n3c(=O)[nH]c4ccccc43)CC2)C1 (stereo not drawn) [Example 5, N-ethyl-3-methyl-3-(4-(2-oxo-2,3-dihydro-1H-benzo[d]imidazol-1-yl)piperidin-1-yl)pyrrolidine-1-carboxamide] | 5130 | > 16000 |  |  |
| COC(=O)N1CCC(C)(N2CCC(n3c(=O)[nH]c4cc(F)ccc43)CC2)C1 (stereo not drawn) [Example 8, methyl 3-(4-(5-fluoro-2-oxo-2,3-dihydro-1H-benzo[d]imidazol-1-yl)piperidin-1-yl)-3-methylpyrrolidine-1-carboxylate] | 1280 | 5210 |  |  |
| CC1(N2CCC(n3c(=O)[nH]c4cc(F)ccc43)CC2)CCN(C(=O)OCCF)C1 (stereo not drawn) [Example 10, 2-fluoroethyl 3-(4-(5-fluoro-2-oxo-2,3-dihydro-1H-benzo[d]imidazol-1-yl)piperidin-1-yl)-3-methylpyrrolidine-1-carboxylate] | 2140 | 5170 |  |  |
| C#CCOC(=O)N1CCC(C)(N2CCC(n3c(=O)[nH]c4cc(F)ccc43)CC2)C1 (stereo not drawn) [Example 11, prop-2-ynyl 3-(4-(5-fluoro-2-oxo-2,3-dihydro-1H-benzo[d]imidazol-1-yl)piperidin-1-yl)-3-methylpyrrolidine-1-carboxylate] | 149 | 714 |  |  |
| CCOC(=O)N1CCC(C)(N2CCC(n3c(=O)[nH]c4ccc(C)cc43)CC2)C1 (stereo not drawn) [Example 16, ethyl 3-methyl-3-(4-(6-methyl-2-oxo-2,3-dihydro-1H-benzo[d]imidazol-1-yl)piperidin-1-yl)pyrrolidine-1-carboxylate] | 418 | 1700 |  |  |
| COC(=O)N1CCC(C)(N2CCC(n3c(=O)[nH]c4ccc(C)cc43)CC2)C1 (stereo not drawn) [Example 17, methyl 3-methyl-3-(4-(6-methyl-2-oxo-2,3-dihydro-1H-benzo[d]imidazol-1-yl)piperidin-1-yl)pyrrolidine-1-carboxylate] | 709 | 3150 |  |  |
